Measured values from US12478066B2, “Pesticidal mixtures” (BASF SE, priority 2019, dated 2025).

Legend:
Type in all cases: cell-based
[1] = tested on: Qoi resistant isolate of Septoria tritici; test: Microtest: activity against leaf blotch on wheat caused by Septoria tritici (SEPTTR), Qoi resistant isolate; conditions: 7 days after inoculation
Procedure: (§1) The active compounds were formulated separately as a stock solution having a concentration of 10000 ppm in dimethyl sulfoxide.
(§2) The stock solutions were mixed according to the ratio, pipetted onto a micro titer plate (MTP) and diluted with water to the stated concentrations. A spore suspension of a Qoi resistant isolate of Septoria tritici in an aqueous biomalt or yeast-bactopeptone-glycerine or DOB solution was then added. The plates were placed in a water vapor-saturated chamber at a temperature of 18° C. Using an absorption photometer, the MTPs were measured at 405 nm 7 days after the inoculation.
(§3) The measured parameters were compared to the growth of the active compound-free control variant (100%) and the fungus-free blank value to determine the relative growth in % of the pathogens in the respective active compounds.
(§4) These percentages were converted into efficacies.
(§5) An efficacy of 0 means that the growth level of the pathogens corresponds to that of the untreated control; an efficacy of 100 means that the pathogens were not growing.
(§6) The expected efficacies of active compound mixtures were determined using Colby's formula [R. S. Colby, “Calculating synergistic and antagonistic responses of herbicide combinations”, Weeds 15, 20-22 (1967)] and compared with the observed efficacies.

[2] = tested on: Qoi resistant isolate of Pyrenophora teres; test: Microtiter test: activity against net blotch Pyrenophora teres on barley (PYRNTE), Qoi resistant isolate; conditions: 0.063 ppm, 7 days after inoculation
Procedure: as §1
as §2, with “Pyrenophora teres” for “Septoria tritici”
as §3, §4, §5, §6

Rhynchosporium secalis = test: Microtest: activity against Rhynchosporium secalis (RHYNSE); conditions: 7 days after inoculation
Procedure: as §1
as §2, with “Rhynchosporium secalis” for “a Qoi resistant isolate of Septoria tritici”
as §3, §4, §5, §6

Leptosphaeria nodorum = test: Microtest: activity against wheat leaf spots caused by Leptosphaeria nodorum (LEPTNO); conditions: 7 days after inoculation
Procedure: as §1
as §2, with “Leptosphaeria nodorum” for “a Qoi resistant isolate of Septoria tritici”
as §3, §4, §5, §6

Microdochium nivale = test: Microtest: activity against Microdochium nivale (MONGNI); conditions: 7 days after inoculation
Procedure: as §1
as §2, with “Microdochium nivale” for “a Qoi resistant isolate of Septoria tritici”
as §3, §4, §5, §6

Compound	Observed efficacy ([1]; 0.016 ppm)	Observed efficacy ([1]; 0.063 ppm)	Observed efficacy [2]	Observed efficacy (Rhynchosporium secalis; 0.063 ppm)	Observed efficacy (Leptosphaeria nodorum; 0.004 ppm)	Observed efficacy (Microdochium nivale; 0.004 ppm)	Observed efficacy (Microdochium nivale; 0.016 ppm)	Observed efficacy (Microdochium nivale; 0.063 ppm)	Observed efficacy ([1]; 0.004 ppm)	Observed efficacy (Rhynchosporium secalis; 0.016 ppm)	Observed efficacy (Leptosphaeria nodorum; 0.016 ppm)
COc1ccnc(C(=O)N[C@@H](C)C(=O)O[C@@H](C)C(c2ccc(F)cc2)c2ccc(F)cc2)c1OC(C)=O [Florylpicoxamid, [(1S)-2,2-bis(4-fluorophenyl)-1-methyl-ethyl] (2S)-2-[(3-acetoxy-4-methoxy-pyridine-2-carbonyl)amino]propanoate]	0	12	9	55	13	3	18	44	–	–	–
Cc1cccc(-n2nnn(C)c2=O)c1COc1ccn(-c2ccc(Cl)cc2)n1 [Metyltetraprol, 1-[2-[[1-(4-chlorophenyl)pyrazol-3-yl]oxymethyl]-3-methyl-phenyl]-4-methyl-tetrazol-5-one]	0	1	11	–	–	1	32	–	1	14	49
